Measurements as given in ChEMBL document CHEMBL3352328, “Synthesis and biological evaluation of a new series of N-acyldiamines as potential antibacterial and antifungal agents” (2014).
Active and inactive are the calls of the source.

Experiments:
Candida albicans = experiment: Antifungal activity against Candida albicans ATCC 18804 by broth microdilution method; type: functional
Pseudomonas aeruginosa [1] = experiment: Antimicrobial activity against Pseudomonas aeruginosa ATCC 27853 by broth dilution method; type: functional
Escherichia coli [2] = experiment: Bactericidal activity against Escherichia coli ATCC 11229 after 24 hrs; type: functional; settings: ATCC 11229, 24 h
Candida parapsilosis = experiment: Antifungal activity against Candida parapsilosis ATCC 22019 by broth microdilution method; type: functional; settings: Lodderomyces parapsilosis
Candida tropicalis = experiment: Antifungal activity against Candida tropicalis ATCC 750 by broth microdilution method; type: functional
Staphylococcus aureus [3] = experiment: Bacteriostatic activity against Staphylococcus aureus ATCC 29213 after 24 hrs; type: functional, organism-based
[4] = test system: Staphylococcus epidermidis; experiment: Antimicrobial activity against Staphylococcus epidermidis ATCC 12228 by broth dilution method; type: functional
Nakaseomyces glabratus = experiment: Antifungal activity against Candida glabrata ATCC 90030 by broth microdilution method; type: functional
Escherichia coli [5] = experiment: Antimicrobial activity against Escherichia coli ATCC 11229 by broth dilution method; type: functional
Staphylococcus aureus [6] = experiment: Antimicrobial activity against Staphylococcus aureus ATCC 29213 by broth dilution method; type: functional
[7] = test system: Staphylococcus epidermidis; experiment: Bactericidal activity against Staphylococcus epidermidis ATCC 12228 after 24 hrs; type: functional; settings: ATCC 12228, 24 h
Pseudomonas aeruginosa [8] = experiment: Bactericidal activity against Pseudomonas aeruginosa ATCC 27853 after 24 hrs; type: functional; settings: ATCC 27853, 24 h
Staphylococcus aureus [9] = experiment: Bactericidal activity against methicillin-resistant Staphylococcus aureus clinical isolate 14 after 24 hrs; type: functional; settings: isolate 14, 24 h
Staphylococcus aureus [10] = experiment: Bactericidal activity against methicillin-resistant Staphylococcus aureus clinical isolate 5 after 24 hrs; type: functional; settings: isolate 5, 24 h
Staphylococcus aureus [11] = experiment: Bactericidal activity against methicillin-resistant Staphylococcus aureus clinical isolate after 24 hrs; type: functional
Staphylococcus aureus [12] = experiment: Bactericidal activity against methicillin-resistant Staphylococcus aureus clinical isolate 8 after 24 hrs; type: functional; settings: isolate 8, 24 h
Staphylococcus aureus [13] = experiment: Bactericidal activity against methicillin-resistant Staphylococcus aureus clinical isolate 12 after 24 hrs; type: functional; settings: isolate 12, 24 h
Staphylococcus aureus [14] = experiment: Bactericidal activity against methicillin-resistant Staphylococcus aureus clinical isolate 13 after 24 hrs; type: functional; settings: isolate 13, 24 h
Escherichia coli [15] = experiment: Bacteriostatic activity against Escherichia coli ATCC 11229 after 24 hrs; type: functional, organism-based
Staphylococcus aureus [16] = experiment: Bactericidal activity against methicillin-resistant Staphylococcus aureus clinical isolate 21 after 24 hrs; type: functional; settings: isolate 21, 24 h
Staphylococcus aureus [17] = experiment: Bactericidal activity against methicillin-resistant Staphylococcus aureus clinical isolate 18 after 24 hrs; type: functional; settings: isolate 18, 24 h
Staphylococcus aureus [18] = experiment: Bactericidal activity against methicillin-resistant Staphylococcus aureus clinical isolate 19 after 24 hrs; type: functional; settings: isolate 19, 24 h
Staphylococcus aureus [19] = experiment: Bactericidal activity against methicillin-resistant Staphylococcus aureus clinical isolate 10 after 24 hrs; type: functional; settings: isolate 10, 24 h
Staphylococcus aureus [20] = experiment: Bactericidal activity against methicillin-resistant Staphylococcus aureus clinical isolate 16 after 24 hrs; type: functional; settings: isolate 16, 24 h
Staphylococcus aureus [21] = experiment: Bactericidal activity against methicillin-resistant Staphylococcus aureus clinical isolate 17 after 24 hrs; type: functional; settings: isolate 17, 24 h
Staphylococcus aureus [22] = experiment: Bactericidal activity against methicillin-resistant Staphylococcus aureus clinical isolate 7 after 24 hrs; type: functional; settings: isolate 7, 24 h
Staphylococcus aureus [23] = experiment: Bactericidal activity against methicillin-resistant Staphylococcus aureus clinical isolate 9 after 24 hrs; type: functional; settings: isolate 9, 24 h
Staphylococcus aureus [24] = experiment: Bactericidal activity against methicillin-resistant Staphylococcus aureus clinical isolate 6 after 24 hrs; type: functional; settings: isolate 6, 24 h
Staphylococcus aureus [25] = experiment: Bactericidal activity against methicillin-resistant Staphylococcus aureus clinical isolate 11 after 24 hrs; type: functional; settings: isolate 11, 24 h
Staphylococcus aureus [26] = experiment: Bactericidal activity against methicillin-resistant Staphylococcus aureus clinical isolate 3 after 24 hrs; type: functional; settings: isolate 3, 24 h
Staphylococcus aureus [27] = experiment: Bactericidal activity against methicillin-resistant Staphylococcus aureus clinical isolate 1 after 24 hrs; type: functional; settings: isolate 1, 24 h
Staphylococcus aureus [28] = experiment: Bactericidal activity against methicillin-resistant Staphylococcus aureus clinical isolate 20 after 24 hrs; type: functional; settings: isolate 20, 24 h
Staphylococcus aureus [29] = experiment: Bactericidal activity against methicillin-resistant Staphylococcus aureus clinical isolate 2 after 24 hrs; type: functional; settings: isolate 2, 24 h
Staphylococcus aureus [30] = experiment: Bactericidal activity against Staphylococcus aureus ATCC 29213 after 24 hrs; type: functional; settings: ATCC 29213, 24 h
Staphylococcus aureus [31] = experiment: Bactericidal activity against methicillin-resistant Staphylococcus aureus clinical isolate 15 after 24 hrs; type: functional; settings: isolate 15, 24 h
Staphylococcus aureus [32] = experiment: Bactericidal activity against methicillin-resistant Staphylococcus aureus clinical isolate 4 after 24 hrs; type: functional; settings: isolate 4, 24 h
Pseudomonas aeruginosa [33] = experiment: Bacteriostatic activity against Pseudomonas aeruginosa ATCC 27853 after 24 hrs; type: functional, organism-based

CCCCCCCCCCCC(=O)NCCCN
256 µg/mL: MIC (Candida albicans) | MIC (Staphylococcus aureus [6]) | MBC (Pseudomonas aeruginosa [8])
32 µg/mL: MIC [4] | MIC (Nakaseomyces glabratus) | MBC [7]
64 µg/mL: MIC (Pseudomonas aeruginosa [1]) | MIC (Candida parapsilosis)
128 µg/mL: MIC (Candida tropicalis) | MIC (Escherichia coli [5])
active: Activity (Staphylococcus aureus [3])
512 µg/mL: MBC (Escherichia coli [2])

CCCCCCCC/C=C\CCCCCCCC(=O)NCCCN
1020 µg/mL: MBC (Staphylococcus aureus [9]) | MBC (Staphylococcus aureus [28])
128 µg/mL: MBC (Staphylococcus aureus [30])
> 1020 µg/mL: MIC (Pseudomonas aeruginosa [1])
16 µg/mL: MBC (Staphylococcus aureus [10]) | MIC50 (Staphylococcus aureus [11]) | MBC (Staphylococcus aureus [12]) | MBC (Staphylococcus aureus [13]) | MBC (Staphylococcus aureus [21]) | MBC (Staphylococcus aureus [22]) | MBC [7] | MBC (Staphylococcus aureus [23]) | MBC (Staphylococcus aureus [25]) | MBC (Staphylococcus aureus [26]) | MBC (Staphylococcus aureus [27]) | MBC (Staphylococcus aureus [29]) | MBC (Staphylococcus aureus [31])
active: Activity (Escherichia coli [15])
1 µg/mL: MIC [4]
64 µg/mL: MBC (Staphylococcus aureus [14]) | MBC (Staphylococcus aureus [24])
512 µg/mL: MIC90 (Staphylococcus aureus [11]) | MBC (Staphylococcus aureus [16]) | MBC (Staphylococcus aureus [32])
2 µg/mL: MIC (Candida albicans) | MIC (Staphylococcus aureus [6])
4 µg/mL: MIC (Candida parapsilosis) | MBC (Staphylococcus aureus [18]) | MIC (Candida tropicalis) | MIC (Nakaseomyces glabratus) | MIC (Escherichia coli [5])
8 µg/mL: MBC (Staphylococcus aureus [17]) | MBC (Staphylococcus aureus [19]) | MBC (Staphylococcus aureus [20])

CN[C@H](CC(C)C)C(=O)N[C@H]1C(=O)N[C@@H](CC(N)=O)C(=O)N[C@H]2C(=O)N[C@H]3C(=O)N[C@H](C(=O)N[C@H](C(=O)O)c4cc(O)cc(O)c4-c4cc3ccc4O)[C@H](O)c3ccc(c(Cl)c3)Oc3cc2cc(c3O[C@@H]2O[C@H](CO)[C@@H](O)[C@H](O)[C@H]2O[C@H]2C[C@](C)(N)[C@H](O)[C@H](C)O2)Oc2ccc(cc2Cl)[C@H]1O [VANCOMYCIN]
0.5 µg/mL: MBC (Staphylococcus aureus [12]) | MBC (Staphylococcus aureus [16]) | MBC (Staphylococcus aureus [18]) | MBC (Staphylococcus aureus [21]) | MBC (Staphylococcus aureus [26]) | MBC (Staphylococcus aureus [28])
1 µg/mL: MBC (Staphylococcus aureus [9]) | MBC (Staphylococcus aureus [10]) | MBC (Staphylococcus aureus [13]) | MBC (Staphylococcus aureus [14]) | MBC (Staphylococcus aureus [17]) | MBC (Staphylococcus aureus [19]) | MBC (Staphylococcus aureus [20]) | MBC (Staphylococcus aureus [22]) | MBC (Staphylococcus aureus [23]) | MBC (Staphylococcus aureus [24]) | MBC (Staphylococcus aureus [25]) | MBC (Staphylococcus aureus [27]) | MBC (Staphylococcus aureus [29]) | MBC (Staphylococcus aureus [31]) | MBC (Staphylococcus aureus [32])

CCCCCCCCCCCC(=O)NCCCCN
1020 µg/mL: MIC (Nakaseomyces glabratus)
16 µg/mL: MIC [4] | MBC [7]
32 µg/mL: MIC (Pseudomonas aeruginosa [1]) | MBC (Pseudomonas aeruginosa [8])
256 µg/mL: MIC (Candida albicans) | MIC (Candida parapsilosis)
128 µg/mL: MIC (Candida tropicalis)
64 µg/mL: MBC (Escherichia coli [2]) | MIC (Escherichia coli [5]) | MIC (Staphylococcus aureus [6])
512 µg/mL: MBC (Staphylococcus aureus [30])

CCCCCCCCCCCCCCCC(=O)NCCCN
16 µg/mL: MIC (Candida tropicalis)
active: Activity (Escherichia coli [15])
4 µg/mL: MIC [4]
8 µg/mL: MIC (Candida parapsilosis) | MIC (Nakaseomyces glabratus)
> 1020 µg/mL: MIC (Pseudomonas aeruginosa [1]) | MIC (Staphylococcus aureus [6])
64 µg/mL: MIC (Candida albicans) | MBC [7]
32 µg/mL: MIC (Escherichia coli [5])

O=C(N[C@H](CO)[C@H](O)c1ccc([N+](=O)[O-])cc1)C(Cl)Cl [CHLORAMPHENICOL]
64 µg/mL: MBC (Staphylococcus aureus [9]) | MBC (Staphylococcus aureus [12]) | MBC (Staphylococcus aureus [13]) | MBC (Staphylococcus aureus [14]) | MBC (Staphylococcus aureus [19]) | MBC (Staphylococcus aureus [22]) | MBC (Staphylococcus aureus [25]) | MBC (Staphylococcus aureus [27])
8 µg/mL: MBC (Staphylococcus aureus [16]) | MBC (Staphylococcus aureus [17]) | MBC (Staphylococcus aureus [23]) | MBC (Staphylococcus aureus [24]) | MBC (Staphylococcus aureus [32])
4 µg/mL: MBC (Staphylococcus aureus [10]) | MBC (Staphylococcus aureus [21]) | MBC (Staphylococcus aureus [26]) | MBC (Staphylococcus aureus [28]) | MBC (Staphylococcus aureus [29])
active: Activity (Escherichia coli [15]) | Activity (Staphylococcus aureus [3]) | Activity (Pseudomonas aeruginosa [33])
32 µg/mL: MIC90 (Staphylococcus aureus [11]) | MIC (Pseudomonas aeruginosa [1]) | MIC [4] | MBC (Staphylococcus aureus [20]) | MBC (Staphylococcus aureus [31])
128 µg/mL: MBC (Staphylococcus aureus [18]) | MBC [7]
